Data published in patent US12378268B2, “Heterocyclic THR-β receptor agonist compound and preparation method and use therefor” (Hepagene Therapeutics (HK) Limited, priority 2019, dated 2025).
Read-outs that look alike come from different tables or passages of the source.

How the values were obtained:
THR-α = molecular target: T1, THR-α (Homo sapiens, UniProt P10827); test: Test of the binding ability of the compound to TRα (TRα LBD/RXRα, biotin-SRC2-2 co-activating peptide, 665/615 nm fluorescence ratio); format: biochemical; details: for Emax: activity relative to positive control
T1 construct: TR-a LBD, GST purchased from Thermo Fisher; purchased Thermo Fisher PV4762
T1 sequence (P10827 163-410 isoform P10827-2 limits assumed, other chains not shown): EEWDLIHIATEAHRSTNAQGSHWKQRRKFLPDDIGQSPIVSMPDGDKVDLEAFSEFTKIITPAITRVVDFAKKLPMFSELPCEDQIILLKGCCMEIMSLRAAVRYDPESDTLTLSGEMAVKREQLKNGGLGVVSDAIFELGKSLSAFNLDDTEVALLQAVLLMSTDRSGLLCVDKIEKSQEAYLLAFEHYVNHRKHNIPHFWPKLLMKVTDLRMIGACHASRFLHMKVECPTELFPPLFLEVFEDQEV
T1 sequence (P19793 whole entry partner, other chains not shown, the tested form may be a part): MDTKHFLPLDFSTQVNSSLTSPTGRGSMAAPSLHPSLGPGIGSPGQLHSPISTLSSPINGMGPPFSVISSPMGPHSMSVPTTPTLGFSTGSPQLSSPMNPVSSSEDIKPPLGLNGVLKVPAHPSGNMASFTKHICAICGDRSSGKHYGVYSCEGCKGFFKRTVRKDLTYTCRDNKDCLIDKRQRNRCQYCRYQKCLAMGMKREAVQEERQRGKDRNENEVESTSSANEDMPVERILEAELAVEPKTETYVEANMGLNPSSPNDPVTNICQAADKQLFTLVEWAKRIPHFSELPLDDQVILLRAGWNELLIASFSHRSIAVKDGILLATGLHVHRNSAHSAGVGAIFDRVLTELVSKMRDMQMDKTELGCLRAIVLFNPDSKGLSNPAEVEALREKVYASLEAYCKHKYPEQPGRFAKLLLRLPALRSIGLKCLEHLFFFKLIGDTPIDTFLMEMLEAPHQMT
Procedure: (§1) 4.2 The activity percentage was calculated as follows: […]
(§2) RatioCompound: Average of the relative ratios of the compound wells of the embodiments
(§3) RatioPositive: Average of the relative ratios of all positive control wells.
(§4) RatioBlank: Average of the relative ratios of all negative control wells.
(§5) EC50 was calculated by fitting the relationship between activity (%) and compound logarithmic concentration with Graphpad 5.0 by a nonlinear regression method.
(§6) Y=Bottom+ (top-bottom)/(1+10^((LogEC50−X)*slope))
(§7) X: Compound logarithmic concentration Y: Percentage activity

THR-β = molecular target: T2, THR-β (Homo sapiens, UniProt P10828); test: Test of the binding ability of the compound to TRβ (TRβ LBD/RXR, biotin-SRC2-2 co-activating peptide, 665/615 nm fluorescence ratio); format: biochemical; details: for Emax: activity relative to positive control; for α/β selectivity (multiple): calculated after being standardized with T3
T2 construct: TRB LBD, GST purchased from Thermo Fisher; purchased Thermo Fisher PV4762
T2 sequence (P10828 217-461 limits assumed, other chains not shown): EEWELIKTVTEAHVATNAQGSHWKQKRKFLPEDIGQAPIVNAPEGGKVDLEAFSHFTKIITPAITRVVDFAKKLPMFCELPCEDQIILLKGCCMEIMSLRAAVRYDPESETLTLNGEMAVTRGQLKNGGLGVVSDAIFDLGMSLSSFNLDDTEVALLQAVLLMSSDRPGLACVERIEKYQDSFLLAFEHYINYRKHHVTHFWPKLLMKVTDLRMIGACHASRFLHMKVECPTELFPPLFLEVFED
T2 sequence (P28702 whole entry partner, other chains not shown, the tested form may be a part): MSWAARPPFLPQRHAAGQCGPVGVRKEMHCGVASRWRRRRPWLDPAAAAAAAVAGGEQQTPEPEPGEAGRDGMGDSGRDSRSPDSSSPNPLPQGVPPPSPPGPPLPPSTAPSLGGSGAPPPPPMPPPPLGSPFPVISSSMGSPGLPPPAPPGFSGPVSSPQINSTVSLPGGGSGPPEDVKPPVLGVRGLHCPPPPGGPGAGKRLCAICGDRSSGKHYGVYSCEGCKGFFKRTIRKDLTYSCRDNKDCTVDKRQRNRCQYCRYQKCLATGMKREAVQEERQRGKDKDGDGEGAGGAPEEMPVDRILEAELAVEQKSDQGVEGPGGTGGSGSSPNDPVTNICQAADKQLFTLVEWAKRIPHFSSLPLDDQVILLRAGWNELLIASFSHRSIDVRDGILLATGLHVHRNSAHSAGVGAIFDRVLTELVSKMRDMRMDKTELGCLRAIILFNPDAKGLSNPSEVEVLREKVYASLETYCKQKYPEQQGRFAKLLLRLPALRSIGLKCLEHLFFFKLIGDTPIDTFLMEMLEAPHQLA
Procedure: 1. Main experimental materials and instruments:
Biotin-SRC2-2 co-activating peptide purchased from Sangon Biotech (Shanghai) Co., Ltd.
TRB LBD, GST purchased from Thermo Fisher (product No. PV4762)
Europium-conjugated anti-glutathione antibody purchased from Cisbio (product No. 61GSTKLB)
Streptavidin-D2 purchased from Cisbio (product No. 610SADAB)
as §1, §2, §3, §4, §5, §6, §7

[1] = Drug metabolism experiment on prodrug in SD rats: concentration in liver compared with blood; format: in vivo; details: SD rats; for transformation of prodrug into active metabolite 1 in the liver: oral 3 mg/kg, in words
Procedure: (§8) Test 3: Drug metabolism experiment on prodrug in SD rats
(§9) In the experiment, […] of 12 male SD rats having similar body weights were selected and orally administered compound 9, compound 10, and the control drug VK2809 (the prodrug of MB07444, structured as shown below) at a dose of 3 mg/kg at a single time, respectively, and blood and liver samples were collected at different time points.
(§10) Solutions of compound 9/compound 10 and VK2809 with a final concentration of 0.6 mg/mL were respectively prepared, and the ratio between the solvents used for the preparation was PEG400: pure water =50:50 (v/v).
(§11) No randomization was performed. The weights of the animals were measured before administration, and healthy animals with similar body weights were selected for inclusion in the experiment. The oral dose was 3 mg/kg.
(§12) At least 0.2 mL of blood was collected from the tail vein or jugular vein, and heparin sodium was used as the anticoagulant.
(§13) After being collected, a blood sample was placed in a marked ice-water bath centrifuge tube, plasma was quickly separated by centrifugation under centrifugation conditions: 3500 rpm, 10 minutes, and 4° C., and the plasma was stored under −40° C. for testing.
After the liver sample was collected, its surface was washed with normal saline, dried with medical gauze, placed in a labeled small ziplock bag, and stored under −40° C. for testing.
(§14) Q TRAP6500 mass spectrometer with ESI source was used to perform negative ion MRM scanning. An LC-MS/MS analysis method was used to detect the contents of compound 9, compound 10 and its active metabolite 1, VK2809 and its active metabolite MB07444 in the plasma and liver. The metabolic kinetics data analysis software WinNonlin 7.0 was used to calculate the concentration data of plasma, and the non-compartmental model (NCA) method was used to calculate the pharmacokinetic parameters.
The parameters of concentration in the livers of the SD rats and a comparison with the concentration in plasma are shown in Table 3 below: […]

[2] = Drug metabolism experiment on prodrug in SD rats: plasma pharmacokinetic parameters; format: in vivo; details: for concentration of prodrug in plasma / transformation of prodrug into the active parent drug after oral administration: oral 3 mg/kg, in words
Procedure: as §8, §9, §10, §11, §12
15 min, 30 min, 1 h, 2 h, 4 h, 6 h, 8 h, 24 h after administration.
as §13, §14

[3] = plasma, oral 3 mg/kg Compound 9
[4] = male, Sprague-Dawley (SD), rat, plasma, po, 3 mg/kg, oral 3 mg/kg Compound 10
[5] = male, Sprague-Dawley, rat, liver, po, 3 mg/kg, 1 h, oral 3 mg/kg VK-2809, read-out: Ct Liver
[6] = male, Sprague-Dawley, rat, liver, po, 3 mg/kg, 4 h, oral 3 mg/kg VK-2809, read-out: Ct Liver
[7] = male, Sprague-Dawley, rat, liver, po, 3 mg/kg, 8 h, oral 3 mg/kg VK-2809, read-out: Ct Liver
[8] = male, Sprague-Dawley, rat, liver/plasma, po, 3 mg/kg, 1 h, oral 3 mg/kg VK-2809, read-out: Liver-to-blood ratio
[9] = male, Sprague-Dawley, rat, liver/plasma, po, 3 mg/kg, 4 h, oral 3 mg/kg VK-2809, read-out: Liver-to-blood ratio
[10] = male, Sprague-Dawley, rat, liver/plasma, po, 3 mg/kg, 8 h, oral 3 mg/kg VK-2809, read-out: Liver-to-blood ratio
[11] = male, Sprague-Dawley, rat, plasma, po, 3 mg/kg, 1 h, oral 3 mg/kg VK-2809, read-out: Ct Blood
[12] = male, Sprague-Dawley, rat, plasma, po, 3 mg/kg, 4 h, oral 3 mg/kg VK-2809, read-out: Ct Blood
[13] = male, Sprague-Dawley, rat, plasma, po, 3 mg/kg, 8 h, oral 3 mg/kg VK-2809, read-out: Ct Blood
[14] = male, Sprague-Dawley (SD), rat, plasma, po, 3 mg/kg, oral 3 mg/kg VK2809
[15] = male, Sprague-Dawley (SD), rat, plasma, po, 3 mg/kg, plasma, oral 3 mg/kg VK2809, read-out: Cmax

Compound	EC50 (THR-α) [nM]	Emax (THR-α) [%]	EC50 (THR-β) [nM]	Emax (THR-β) [%]	α/β selectivity (multiple) (THR-β)	transformation of prodrug into active metabolite 1 in the liver [1]	concentration of prodrug in plasma [2]	transformation of prodrug into the active parent drug after oral administration [2]	concentration at 1 h [1, 5] [ng/g]	concentration at 4 h [1, 6] [ng/g]	concentration at 8 h [1, 7] [ng/g]	Kp at 1 h [1, 8]	Kp at 4 h [1, 9]	Kp at 8 h [1, 10]	concentration at 1 h [1, 11] [ng/g]	concentration at 4 h [1, 12] [ng/g]	concentration at 8 h [1, 13] [ng/g]	AUC(0-inf) [2, 14] [ng·h/mL]	AUC(0-t) [2, 14] [ng·h/mL]	Tmax [2, 14] [h]	further results
Cc1cc(OCP(=O)(O)O)cc(C)c1Oc1ccc(O)c2c1CCC2(C)C [Compound 5, ((4-((7-hydroxy-1,1-dimethyl-2,3-dihydro-1H-indene-4-position)oxy)-3,5-dimethylphenoxy)methyl) phosphoric acid]	< 200	102	< 100	110	–	–	–	–	–	–	–	–	–	–	–	–	–	–	–	–	–
CC1(C)CCc2c(Cc3c(Cl)cc(OCP(=O)(O)O)cc3Cl)ccc(O)c21 [Compound 6, ((3,5-dichloro-4-((7-hydroxy-1,1-dimethyl-2,3-dihydro-1H-indene-4-position)methyl)phenoxy)methyl) phosphoric acid]	50	99.2	108	79	0.7	–	–	–	–	–	–	–	–	–	–	–	–	–	–	–	–
Cc1cc(OC[P@@](=O)(N[C@@H](C)C(=O)OC(C)C)Oc2ccccc2)cc(C)c1Cc1ccc(O)c2c1CCC2(C)C [Compound 9]	–	–	–	–	–	rapidly metabolized in the liver to produce active metabolite compound 1	not high	quickly transformed into the active parent drug compound 1	–	–	–	–	–	–	–	–	–	–	–	–	Ct Blood ([1]; 1 h, oral 3 mg/kg Compound 9): BLQ; Ct Liver ([1]; 1 h, oral 3 mg/kg Compound 9): BLQ; Ct Blood ([1]; 4 h, oral 3 mg/kg Compound 9): BLQ; Ct Liver ([1]; 4 h, oral 3 mg/kg Compound 9): BLQ; Ct Blood ([1]; 8 h, oral 3 mg/kg Compound 9): BLQ; Ct Liver ([1]; 8 h, oral 3 mg/kg Compound 9): BLQ; Ct Blood ([1]; 24 h, oral 3 mg/kg Compound 9): BLQ; Ct Liver ([1]; 24 h, oral 3 mg/kg Compound 9): BLQ; AUC0−t [2, 3]: BLQ; AUC0−∞ [2, 3]: BLQ; Cmax [2, 3]: BLQ
Cc1cc(OC[P@@]2(=O)OCC[C@@H](c3cccc(Cl)c3)O2)cc(C)c1Cc1ccc(O)c2c1CCC2(C)C [Compound 10]	–	–	–	–	–	much better than that of VK2809	not high	quickly transformed into the active parent drug compound 1	–	–	–	–	–	–	–	–	–	–	–	–	Ct Blood ([1]; 24 h, oral 3 mg/kg Compound 10): BLQ; Ct Liver ([1]; 24 h, oral 3 mg/kg Compound 10): BLQ; Kp at 1 h ([1]; male, Sprague-Dawley (SD), rat, liver / plasma (heading prints blood), po, 3 mg/kg, 1 h, oral 3 mg/kg Compound 10, read-out: Liver-to-blood ratio): 16.2; Kp at 4 h ([1]; male, Sprague-Dawley (SD), rat, liver / plasma (heading prints blood), po, 3 mg/kg, 4 h, oral 3 mg/kg Compound 10, read-out: Liver-to-blood ratio): 7.8; Kp at 8 h ([1]; male, Sprague-Dawley (SD), rat, liver / plasma (heading prints blood), po, 3 mg/kg, 8 h, oral 3 mg/kg Compound 10, read-out: Liver-to-blood ratio): 4.7; concentration at 1 h ([1]; male, Sprague-Dawley (SD), rat, liver, po, 3 mg/kg, 1 h, oral 3 mg/kg Compound 10, read-out: Ct Liver): 141 ng/g; concentration at 4 h ([1]; male, Sprague-Dawley (SD), rat, liver, po, 3 mg/kg, 4 h, oral 3 mg/kg Compound 10, read-out: Ct Liver): 273 ng/g; concentration at 8 h ([1]; male, Sprague-Dawley (SD), rat, liver, po, 3 mg/kg, 8 h, oral 3 mg/kg Compound 10, read-out: Ct Liver): 46.5 ng/g; concentration at 1 h ([1]; male, Sprague-Dawley (SD), rat, plasma (heading prints blood), po, 3 mg/kg, 1 h, oral 3 mg/kg Compound 10, read-out: Ct Blood): 8.8 ng/g; concentration at 4 h ([1]; male, Sprague-Dawley (SD), rat, plasma (heading prints blood), po, 3 mg/kg, 4 h, oral 3 mg/kg Compound 10, read-out: Ct Blood): 7.9 ng/g; concentration at 8 h ([1]; male, Sprague-Dawley (SD), rat, plasma (heading prints blood), po, 3 mg/kg, 8 h, oral 3 mg/kg Compound 10, read-out: Ct Blood): 10.3 ng/g; AUC(0-inf) [2, 4]: 89.3 ng·h/mL; AUC(0-t) [2, 4]: 69.2 ng·h/mL; Tmax [2, 4]: 4.67 h; half-life [2, 4]: 1.73 h; Cmax ([2]; male, Sprague-Dawley (SD), rat, plasma, po, 3 mg/kg, plasma, oral 3 mg/kg Compound 10, read-out: Cmax): 19.9 ng/mL; Kel ([2]; plasma, oral 3 mg/kg Compound 10): 0.428 h⁻¹
Cc1cc(OCP(=O)(O)O)cc(C)c1Cc1ccc(O)c(C(C)C)c1 [MB07444, reference compound]	51	113	33	113	2.9	–	–	–	214	952	542	15.9	14	13.6	5.9	16.9	29.6	448	420	7.33	concentration at 24 h ([1]; male, Sprague-Dawley, rat, liver, po, 3 mg/kg, 24 h, oral 3 mg/kg VK-2809, read-out: Ct Liver): 37 ng/g; Kp at 24 h ([1]; male, Sprague-Dawley, rat, liver/plasma, po, 3 mg/kg, 24 h, oral 3 mg/kg VK-2809, read-out: Liver-to-blood ratio): 9.9; concentration at 24 h ([1]; male, Sprague-Dawley, rat, plasma, po, 3 mg/kg, 24 h, oral 3 mg/kg VK-2809, read-out: Ct Blood): 3.6 ng/g; half-life [2, 14]: 5.29 h; Cmax [2, 15]: 38.8 ng/mL; Kel ([2]; plasma, oral 3 mg/kg VK2809): 0.131 h⁻¹
Cc1cc(OC[P@@]2(=O)OCC[C@@H](c3cccc(Cl)c3)O2)cc(C)c1Cc1ccc(O)c(C(C)C)c1 [VK2809, reference compound]	–	–	–	–	–	–	–	–	39	30	17	8.6	5.2	4	2.9	4.8	5.6	83.3	43.6	6	Ct Blood ([1]; 24 h, oral 3 mg/kg VK-2809): BLQ; Ct Liver ([1]; 24 h, oral 3 mg/kg VK-2809): BLQ; half-life [2, 14]: 4.81 h; Cmax [2, 15]: 9.9 ng/mL; Kel ([2]; plasma, oral 3 mg/kg VK2809): 0.273 h⁻¹
